Measurements reported in US20210255193A1, “LYSINE REACTIVE PROBES AND USES THEREOF” (The Scripps Research Institute, priority 2017, published 2021).

Tests used:
Test in all cases: competitive isoTOP-ABPP
Assay type in all cases: binding
PLIN3 Perilipin-3 = molecular target: T1, PLIN3 Perilipin-3 (Homo sapiens, UniProt O60664); design: key to isoTOP-ABPP reactivity ratio at lysine O60664_K257 / isoTOP-ABPP reactivity ratio at lysine O60664_K140: R = MS1 peak area ratio, DMSO (heavy) / compound-treated (light); capped at 20
T1 construct: isoTOP-ABPP experiments performed in cell lysates (in vitro); endogenous in cells; host or cells: MDA-MB-231 soluble lysate
T1 sequence (O60664 1-434): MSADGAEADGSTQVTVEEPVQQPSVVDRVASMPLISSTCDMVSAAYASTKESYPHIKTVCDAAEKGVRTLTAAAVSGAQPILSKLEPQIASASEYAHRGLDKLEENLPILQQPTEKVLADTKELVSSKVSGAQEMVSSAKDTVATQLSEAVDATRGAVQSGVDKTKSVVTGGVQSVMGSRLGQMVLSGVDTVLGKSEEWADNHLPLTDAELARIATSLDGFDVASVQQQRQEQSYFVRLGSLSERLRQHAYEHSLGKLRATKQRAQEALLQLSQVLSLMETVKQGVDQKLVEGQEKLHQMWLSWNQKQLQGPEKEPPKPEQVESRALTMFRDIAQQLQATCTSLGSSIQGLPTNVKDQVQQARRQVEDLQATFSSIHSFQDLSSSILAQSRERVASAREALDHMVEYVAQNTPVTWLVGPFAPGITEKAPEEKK
Protocol: (§1) In vitro covalent fragment treatment for isoTOP-ABPP. All compounds were made up as solutions in DMSO (100×) and were used at a final concentration of 50 μM for activated esters and 100 μM for guanidinylating agents. For each profiling sample, 0.5 ml of lysate was treated with 5 μl of the 100× compound stock solution or 5 μl of DMSO. Samples were treated with activated esters for
(§2) STP-alkyne labeling and click chemistry. For concentration-dependent reactivity measurements by isoTOP-ABPP, 0.5 ml proteome aliquots were treated at ambient temperature with 1 mM STP-alkyne 1 (5 μl of 100 mM stock in DMSO) and 0.1 mM STP alkyne 1 (5 μl of 10 mM stock in DMSO), respectively. For competitive isoTOP-ABPP, after in vitro fragment treatment (detailed above), the samples were labeled for 1 h at ambient temperature with 0.1 mM STP-alkyne 1 (5 μl of 10 mM stock in DMSO). Samples were conjugated by copper-mediated azide-alkyne cycloaddition (CuAAC) to either the light (1 mM STP-alkyne or fragment treated) or heavy (0.1 mM STP-alkyne or DMSO treated) TEV tags (10 μl of 5 mM stocks in DMSO, final concentration=100 μM) using tris(2-carboxyethyl)phosphine hydrochloride
(§3) R value calculation and processing. The ratios of light and heavy MS1 peaks for each unique peptide were quantified with a CIMAGE software using default parameters (3 MS1 acquisitions per peak and signal to noise threshold set to 2.5). For reactivity measurements by isoTOP-ABPP, the R value was calculated from the ratio of MS1 peak areas, comparing the 1 mM STP alkyne sample (light TEV tag) with the 0.1 mM STP alkyne sample (heavy TEV tag). For competitive isoTOP-ABPP, the R value was calculated from the ratio of MS1 peak areas, comparing the DMSO treated sample (heavy TEV tag) with the compound treated sample (light TEV tag). […] Ratios for unique peptide entries are calculated for each experiment; overlapping peptides with the same modified lysine (for example, different charge states, MudPIT chromatographic steps or tryptic termini) are grouped together and the median ratio is reported as the final ratio (R). The peptide ratios reported by CIMAGE were further filtered to ensure the removal or correction of low-quality ratios in each individual data set. The quality filters applied were the following: removal of half tryptic peptides; for ratios with high standard deviations from the median (90% of the median or above) the lowest ratio was taken instead of the median; removal of peptides with R=20 and only a single MS2 event triggered during the elution of the parent ion; manual annotation of all the peptides with ratios of 20, removing any peptides with low quality elution profiles that remained after the previous curation steps (only done for competitive isoTOP-ABPP).
(§4) Cross-data processing for fragment screening. For compound treated samples, biological replicates of the same condition were averaged, if the standard deviation was below 60% of the mean; otherwise, for lysines with at least one R value <4 for a particular compound, the lowest value of the ratio set was taken. For lysines, where all R values for a particular compound were ≥4, the average was reported. For peptides containing several possible modified lysines, the lysine with the highest number of quantification events was used for analysis and the remaining, redundant peptides were reported as alternative modification sites. Peptides included in the aggregate dataset (those used for further bioinformatics and statistical analyses) were required to have been quantified in 2 experiments for competitive isoTOP-ABPP. Lysines were categorized as liganded, if they had at least one ratio R≥4 (hit fragments). For liganded lysines with R=20 for all liganding events, lysines were required to have been quantified with R=20 in two separate experiments and were further required to have been quantified with R<20 in one additional experiment.

[1] = molecular target: T2, MRPS24 28S ribosomal protein S24, mitochondrial (Homo sapiens, UniProt Q96EL2); details: 50 uM, in vitro; for isoTOP-ABPP ratio (R) at liganded lysine Q96EL2_K94: sol, 231; for R value (DMSO/fragment) for probe 1 labeling: Q96EL2_K94; for R value (DMSO/fragment) for probe 1 labeling / isoTOP-ABPP reactivity ratio at lysine Q96EL2_K94: 231 sol
T2 construct: isoTOP-ABPP experiments performed in cell lysates (in vitro); endogenous in cells; host or cells: soluble proteome of human cancer cell lines (MDA-MB-231; Ramos and Jurkat also prepared)
Protocol: as §1, §2, §3, §4

[2] = molecular target: T3, GSTT2B Glutathione S-transferase theta-2B (Homo sapiens, UniProt P0CG30); details: for isoTOP-ABPP ratio (R) at liganded lysine P0CG30_K53 / R value (DMSO/fragment) for probe 1 labeling / isoTOP-ABPP reactivity ratio at lysine P0CG30_K53: 50 uM, in vitro; for isoTOP-ABPP ratio (R) at liganded lysine P0CG30_K53: sol, 231; for R value (DMSO/fragment) for probe 1 labeling: P0CG30_K53; for R value (DMSO/fragment) for probe 1 labeling / isoTOP-ABPP reactivity ratio at lysine P0CG30_K53: 231 sol; for isoTOP-ABPP ratio, lysine P0CG30_K53: 50 uM_231_sol_in vitro
T3 construct: isoTOP-ABPP experiments performed in cell lysates (in vitro); endogenous in cells; host or cells: MDA-MB-231 soluble lysate
T3 sequence (P0CG30 1-244): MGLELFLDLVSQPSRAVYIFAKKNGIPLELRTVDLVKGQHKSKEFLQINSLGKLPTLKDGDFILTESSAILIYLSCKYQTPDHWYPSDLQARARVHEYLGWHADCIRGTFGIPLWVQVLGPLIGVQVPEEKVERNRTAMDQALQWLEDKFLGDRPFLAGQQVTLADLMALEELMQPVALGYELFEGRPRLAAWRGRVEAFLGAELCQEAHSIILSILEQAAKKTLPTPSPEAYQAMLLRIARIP
Protocol: as §1, §2, §3, §4

[3] = molecular target: T4, CPOX Coproporphyrinogen-III oxidase, mitochondrial (Homo sapiens, UniProt P36551); design: key to isoTOP-ABPP reactivity ratio at lysine P36551_K404: R = MS1 peak area ratio, DMSO (heavy) / compound-treated (light); details: for isoTOP-ABPP ratio (R) at liganded lysine P36551_K404 / R value (DMSO/fragment) for probe 1 labeling / isoTOP-ABPP reactivity ratio at lysine P36551_K404: 50 uM, in vitro; for isoTOP-ABPP ratio (R) at liganded lysine P36551_K404: sol, 231; for R value (DMSO/fragment) for probe 1 labeling: P36551_K404; for R value (DMSO/fragment) for probe 1 labeling / isoTOP-ABPP reactivity ratio at lysine P36551_K404: 231 sol; for isoTOP-ABPP ratio, lysine P36551_K404: 50 uM_231_sol_in vitro
T4 construct: isoTOP-ABPP experiments performed in cell lysates (in vitro); endogenous in cells; host or cells: soluble proteome of human cancer cell lines (MDA-MB-231; Ramos and Jurkat also prepared)
T4 sequence (P36551 111-454): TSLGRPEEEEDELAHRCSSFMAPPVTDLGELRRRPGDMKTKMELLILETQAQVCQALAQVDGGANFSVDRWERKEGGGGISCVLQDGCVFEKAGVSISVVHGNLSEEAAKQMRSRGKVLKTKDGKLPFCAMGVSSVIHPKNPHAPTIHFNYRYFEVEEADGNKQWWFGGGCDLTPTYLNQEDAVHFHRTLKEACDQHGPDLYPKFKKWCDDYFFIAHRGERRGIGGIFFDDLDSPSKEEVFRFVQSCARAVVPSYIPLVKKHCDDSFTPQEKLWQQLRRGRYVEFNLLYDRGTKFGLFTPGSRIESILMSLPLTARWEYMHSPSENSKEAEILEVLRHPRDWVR
Protocol: as §1, §2, §3, §4

| SMILES | isoTOP-ABPP ratio (R) at liganded lysine Q96EL2_K94 [1] | isoTOP-ABPP ratio (R) at liganded lysine P0CG30_K53 [2] | isoTOP-ABPP ratio (R) at liganded lysine P36551_K404 [3] | isoTOP-ABPP reactivity ratio at lysine P0CG30_K53 [2] | isoTOP-ABPP reactivity ratio at lysine P36551_K404 [3] | further results |
| --- | --- | --- | --- | --- | --- | --- |
| CC(C)(C)OC(=O)NCCCC(=O)Oc1ccc([N+](=O)[O-])cc1[N+](=O)[O-] [fragment 41, 2,4-Dinitrophenyl 4-((tert-butoxycarbonyl)amino)butanoate] | 1.3 | 0.5 | 1.0 |  |  | isoTOP-ABPP ratio (R) at liganded lysine O60664_K140 (PLIN3 Perilipin-3; 50 uM, in vitro, sol, 231): 2.1 |
| Cn1cc(CC(=O)Oc2c(F)c(F)c(F)c(F)c2F)c2ccccc21 [fragment 22, Pentafluorophenyl 2-(1-methyl-1H-indol-3-yl)acetate] |  |  |  |  |  | R value (DMSO/fragment) for probe 1 labeling (PLIN3 Perilipin-3; O60664_K257, 50 uM, 231 sol, in vitro): 2.6; R value (DMSO/fragment) for probe 1 labeling [1]: 1.6; R value (DMSO/fragment) for probe 1 labeling [2]: 1.0; R value (DMSO/fragment) for probe 1 labeling [3]: 1.1 |
| O=C(Oc1ccc([N+](=O)[O-])cc1[N+](=O)[O-])c1ccc(-c2ccccc2)cc1 [fragment 37, 2,4-Dinitrophenyl [1,1′-biphenyl]-4-carboxylate] | 0.9 | 0.7 | 1.0 |  |  | isoTOP-ABPP ratio (R) at liganded lysine O60664_K257 (PLIN3 Perilipin-3; 50 uM, in vitro, sol, 231): 3.5 |
| COc1cc(CCC(=O)Oc2ccc([N+](=O)[O-])cc2[N+](=O)[O-])cc(OC)c1OC [fragment 33, 2,4-Dinitrophenyl 3-(3,4,5-trimethoxyphenyl)propanoate] |  |  |  | 0.5 | 1.0 | isoTOP-ABPP reactivity ratio at lysine O60664_K140 (PLIN3 Perilipin-3; 50 uM, 231 sol, in vitro): 1.1; isoTOP-ABPP reactivity ratio at lysine O60664_K257 (PLIN3 Perilipin-3; 50 uM, 231 sol, in vitro): 2.2; isoTOP-ABPP reactivity ratio at lysine Q96EL2_K94 [1]: 1.4 |
| O=C(CCc1ccc2c(c1)OCO2)Oc1ccc([N+](=O)[O-])cc1[N+](=O)[O-] [fragment 45, 2,4-Dinitrophenyl 3-(benzo[d][1,3]dioxol-5-yl)propanoate] |  |  |  |  |  | isoTOP-ABPP ratio, lysine O60664_K140 (PLIN3 Perilipin-3; 50 uM_231_sol_in vitro): 2.1; isoTOP-ABPP ratio, lysine O60664_K257 (PLIN3 Perilipin-3; 50 uM_231_sol_in vitro): 2.5; isoTOP-ABPP ratio, lysine P0CG30_K53 [2]: 0.5; isoTOP-ABPP ratio, lysine P36551_K404 [3]: 1.2 |
| COc1cc(CCC(=O)Oc2c(F)c(F)c(F)c(F)c2F)cc(OC)c1OC [fragment 23, Pentafluorophenyl 3-(3,4,5-trimethoxyphenyl)propanoate] |  |  |  |  |  | R value (DMSO/fragment) for probe 1 labeling [1]: 2.1; R value (DMSO/fragment) for probe 1 labeling [2]: 0.9; R value (DMSO/fragment) for probe 1 labeling [3]: 1.3 |
| O=C(Oc1ccc([N+](=O)[O-])cc1[N+](=O)[O-])c1ccccc1Nc1cccc(C(F)(F)F)c1 [fragment 40, 2,4-Dinitrophenyl 2-((3-(trifluoromethyl)phenyl)amino)benzoate] |  | 0.6 | 1.8 |  |  | isoTOP-ABPP ratio (R) at liganded lysine O60664_K257 (PLIN3 Perilipin-3; 50 uM, in vitro, sol, 231): 1.6 |
| O=C(Oc1c(F)c(F)c(F)c(F)c1F)c1ccc2ccccc2n1 [fragment 25, Pentafluorophenyl quinoline-2-carboxylate] |  |  |  | 1.0 | 1.3 | isoTOP-ABPP reactivity ratio at lysine Q96EL2_K94 [1]: 1.3 |
| O=C(Oc1ccc([N+](=O)[O-])cc1[N+](=O)[O-])C(c1ccccc1)c1ccccc1 [fragment 30, 2,4-Dinitrophenyl 2,2-diphenylacetate] |  |  |  | 0.6 | 1.1 | isoTOP-ABPP reactivity ratio at lysine O60664_K140 (PLIN3 Perilipin-3; 50 uM, 231 sol, in vitro): 4.5; isoTOP-ABPP reactivity ratio at lysine O60664_K257 (PLIN3 Perilipin-3; 50 uM, 231 sol, in vitro): 2.9 |
| O=C(Oc1ccc([N+](=O)[O-])cc1[N+](=O)[O-])c1cc(C(F)(F)F)cc(C(F)(F)F)c1 [fragment 31, 2,4-Dinitrophenyl 3,5-bis(trifluoromethyl)benzoate] |  |  |  | 0.8 | 1.1 | isoTOP-ABPP reactivity ratio at lysine Q96EL2_K94 [1]: 1.6 |
| CC(=O)Oc1ccc([N+](=O)[O-])cc1[N+](=O)[O-] [fragment 43, 2,4-Dinitrophenyl acetate] | 1.1 | 0.6 | 1.1 |  |  |  |
| Cn1cc(CC(=O)Oc2ccc([N+](=O)[O-])cc2[N+](=O)[O-])c2ccccc21 [fragment 32, 2,4-Dinitrophenyl 2-(1-methyl-1H-indol-3-yl)acetate] |  |  |  | 0.8 | 1.0 | isoTOP-ABPP reactivity ratio at lysine Q96EL2_K94 [1]: 5.1 |
| O=C(Oc1ccc([N+](=O)[O-])cc1[N+](=O)[O-])C1CCN(C(=O)OCc2ccccc2)CC1 [fragment 34, 1-Benzyl 4-(2,4-dinitrophenyl) piperidine-1,4-dicarboxylate] | 1.4 | 0.5 | 1.1 |  |  |  |
| O=C(CC12CC3CC(CC(C3)C1)C2)Oc1ccc([N+](=O)[O-])cc1[N+](=O)[O-] [fragment 38, 2,4-Dinitrophenyl 2-(adamantan-1-yl)acetate] | 3.1 | 0.8 | 1.0 |  |  |  |
| O=C(Oc1c(F)c(F)c(C(F)(F)F)c(F)c1F)c1cc(C(F)(F)F)cc(C(F)(F)F)c1 [fragment 47, 2,3,5,6-Tetrafluoro-4-(trifluoromethyl)phenyl 3,5-bis(trifluoromethyl)benzoate] |  |  |  |  |  | isoTOP-ABPP ratio, lysine P0CG30_K53 [2]: 0.6; isoTOP-ABPP ratio, lysine P36551_K404 [3]: 1.5 |
